Where a SMILES comes first, the peptide text is derived from it. [ ]: non-standard residue; d: D form. The star is where a group is joined. ξ: configuration not given here. d(hhPhe) = N[C@H](CCCc1ccccc1)C(=O)O; hPhe = N[C@@H](CCc1ccccc1)C(=O)O; Cha = N[C@@H](CC1CCCCC1)C(=O)O; ξhhPhe = NC(CCCc1ccccc1)C(=O)O; X7 = O=C(C(O)CC1CCCCC1)*; X12 = CC(c1ccccc1)*; Ahx = NCCCCCC(=O)O

A word on the Ki: it is the dissociation constant of the complex between target and ligand, obtained from inhibition or displacement.

This assay addresses T1, C5a receptor (Homo sapiens, UniProt P21730).
T1 construct: from tissue; host or cells: polymorphonuclear leukocyte (PMNL) membrane fragments
T1 sequence (P21730 1-350): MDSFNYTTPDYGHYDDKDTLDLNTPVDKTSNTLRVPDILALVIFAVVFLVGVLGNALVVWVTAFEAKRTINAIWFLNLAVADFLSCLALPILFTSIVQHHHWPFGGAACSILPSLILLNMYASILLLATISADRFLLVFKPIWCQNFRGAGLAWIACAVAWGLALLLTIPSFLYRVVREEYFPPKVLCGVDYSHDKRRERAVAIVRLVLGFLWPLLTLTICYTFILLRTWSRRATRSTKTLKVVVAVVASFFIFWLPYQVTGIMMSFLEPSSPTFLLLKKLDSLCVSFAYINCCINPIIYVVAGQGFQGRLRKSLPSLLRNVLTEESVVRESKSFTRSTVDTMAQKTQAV
The experiment in a line: Anaphylatoxin (C5a) receptor binding Ki determination, 125I-C5a on PMNL membrane fragments. Conditions: read-out: Ki (In vitro C5a Receptor Binding Potency). Here is the method:
The membrane-bound radiolabeled C5a was separated from the free radiolabeled C5a by filtration, and the recovered gamma radioactivity was measured. […] Free and membrane-bound ligand were separated by filtration.
Turning to `C[C@H](NC(=O)CNC(=O)[C@@H](N)CC1CCCCC1)C(=O)NC(CCCc1ccccc1)C(=O)N[C@@H](CCCNC(=N)N)C(=O)O` (mixture of isomers) [Example 59, H-{(2S)-2-Amino-3-cyclohexylpropanoyl}-Glycyl-Alanyl-{(±)-2-Amino-5-phenylpentanoyl}-Arginyl-OH], the Ki amounted to 67 µM. Next, `CC(C)C[C@H](NC(=O)CCNC(=O)[C@H](CC1CCCCC1)NC(=O)CCCCCN)C(=O)NC(CCCc1ccccc1)C(=O)N[C@@H](CCCNC(=N)N)C(=O)O` (single isomer, unassigned) [Example 114]: 18.6 µM; `CC(C)C[C@H](NC(=O)CNC(=O)[C@@H](N)CSC(C)c1ccccc1)C(=O)N[C@H](CCCc1ccccc1)C(=O)N[C@@H](CCCNC(=N)N)C(=O)O` (stereo partly drawn) [Example 91, H-Cysteinyl(S-1-phenethyl)-Glycyl-Leucyl-{(R)-2-Amino-5-phenylpentanoyl}-Arginyl-OH] (H-C(X12)GL[d(hhPhe)]R-OH): 0.39 µM; `CC(C)C[C@H](NC(=O)[C@H](C)NC(=O)[C@H](CC1CCCCC1)NC(=O)[C@@H]1CCCN1C(=O)CCCCCN)C(=O)NC(CCCc1ccccc1)C(=O)N[C@@H](CCCNC(=N)N)C(=O)O` (stereo partly drawn) [Example 81, N-(6-Aminohexanoyl)-Prolyl-{(2S)-2-Amino-3-cyclohexylpropanoyl}-Alanyl-Leucyl-{(+)-2-Amino-5-phenylpentanoyl}-Arginyl-OH] (H-[Ahx]P[Cha]AL[ξhhPhe]R-OH): 0.11 µM. On to `CC(C)C[C@H](NC(=O)CNC(=O)C=C1CNc2ccccc21)C(=O)N[C@H](CCCc1ccccc1)C(=O)N[C@@H](CCCNC(=N)N)C(=O)O` (single isomer, unassigned) [Example 66], for which the Ki was 0.046 µM. Then `CC(C)C[C@H](NC(=O)CCNC(=O)[C@H](CC1CCCCC1)NC(=O)CCCCCN)C(=O)NC(CCCc1ccccc1)C(=O)N[C@@H](CCCNC(=N)N)C(=O)O` (single isomer, unassigned) [Example 115], with 5.6 µM. Next, `CC(C)C[C@H](NC(=O)CNC(=O)[C@@H](N)CCc1ccccc1)C(=O)N[C@H](CCCc1ccccc1)C(=O)N[C@@H](CCCNC(=N)N)C(=O)O` [Example 117, H-{(S)-2-Amino-4-phenylbutyryl}-Glycyl-Leucyl-{(R)-2-Amino-5-phenylpentanoyl}-Arginyl-OH] (H-[hPhe]GL[d(hhPhe)]R-OH): 0.37 µM; `CC(C)C[C@H](NC(=O)CNC(=O)[C@H](CC1CCCCC1)NC(=O)CCCCN)C(=O)NC(CCCc1ccccc1)C(=O)N[C@@H](CCCNC(=N)N)C(=O)O` (single isomer, unassigned) [Example 139]: 1.1 µM; `CC(C)C[C@H](NC(=O)CNC(=O)[C@H](CC1CCCCC1)N(C)C(=O)CCCCCCN)C(=O)NC(CCCc1ccccc1)C(=O)N[C@@H](CCCNC(=N)N)C(=O)O` (single isomer, unassigned) [Example 75]: 17.2 µM. Then `CC(C)C[C@H](NC(=O)CNC(=O)C(O)CC1CCCCC1)C(=O)N[C@H](CCCc1ccccc1)C(=O)N[C@@H](CCCNC(=N)N)C(=O)O` (stereo partly drawn) [Example 132, N-(3-Cyclohexyl-2-hydroxypropionyl)-Glycyl-Leucyl-{(R)-2-Amino-5-phenylpentanoyl}-Arginyl-OH] (X7-GL[d(hhPhe)]R-OH), with 0.42 µM. Consider `CC(C)C[C@@H](NC(=O)CNC(=O)[C@H](CC1CCCCC1)NC(=O)CCCCCN)C(=O)NC(CCCc1ccccc1)C(=O)N[C@@H](CCCNC(=N)N)C(=O)O` (single isomer, unassigned) [Example 100], for which the Ki was found to be 60 µM. As for `CC(C)C[C@H](NC(=O)CNC(=O)[C@H](CC1CCCCC1)NC(=O)CCCCN)C(=O)NC(CCCc1ccccc1)C(=O)N[C@@H](CCCNC(=N)N)C(=O)O` (single isomer, unassigned) [Example 140], the Ki was 18.6 µM.
